For orientation: IC50 means the concentration needed to halve the response being measured. Higher therefore signals lower potency.

Here are results for one compound from PMC8494430, “Development of a fluorogenic ADAMTS-7 substrate” (Journal of Enzyme Inhibition and Medicinal Chemistry, 2021).

One assay has as its target T1, ADAMTS-7 (Homo sapiens, UniProt Q9UKP4).
T1 construct: the recombinant construct ADAMTS7-T8, which lacks the C-terminal PLAC domain; made in house
T1 sequence (Q9UKP4 237-1631 limits assumed): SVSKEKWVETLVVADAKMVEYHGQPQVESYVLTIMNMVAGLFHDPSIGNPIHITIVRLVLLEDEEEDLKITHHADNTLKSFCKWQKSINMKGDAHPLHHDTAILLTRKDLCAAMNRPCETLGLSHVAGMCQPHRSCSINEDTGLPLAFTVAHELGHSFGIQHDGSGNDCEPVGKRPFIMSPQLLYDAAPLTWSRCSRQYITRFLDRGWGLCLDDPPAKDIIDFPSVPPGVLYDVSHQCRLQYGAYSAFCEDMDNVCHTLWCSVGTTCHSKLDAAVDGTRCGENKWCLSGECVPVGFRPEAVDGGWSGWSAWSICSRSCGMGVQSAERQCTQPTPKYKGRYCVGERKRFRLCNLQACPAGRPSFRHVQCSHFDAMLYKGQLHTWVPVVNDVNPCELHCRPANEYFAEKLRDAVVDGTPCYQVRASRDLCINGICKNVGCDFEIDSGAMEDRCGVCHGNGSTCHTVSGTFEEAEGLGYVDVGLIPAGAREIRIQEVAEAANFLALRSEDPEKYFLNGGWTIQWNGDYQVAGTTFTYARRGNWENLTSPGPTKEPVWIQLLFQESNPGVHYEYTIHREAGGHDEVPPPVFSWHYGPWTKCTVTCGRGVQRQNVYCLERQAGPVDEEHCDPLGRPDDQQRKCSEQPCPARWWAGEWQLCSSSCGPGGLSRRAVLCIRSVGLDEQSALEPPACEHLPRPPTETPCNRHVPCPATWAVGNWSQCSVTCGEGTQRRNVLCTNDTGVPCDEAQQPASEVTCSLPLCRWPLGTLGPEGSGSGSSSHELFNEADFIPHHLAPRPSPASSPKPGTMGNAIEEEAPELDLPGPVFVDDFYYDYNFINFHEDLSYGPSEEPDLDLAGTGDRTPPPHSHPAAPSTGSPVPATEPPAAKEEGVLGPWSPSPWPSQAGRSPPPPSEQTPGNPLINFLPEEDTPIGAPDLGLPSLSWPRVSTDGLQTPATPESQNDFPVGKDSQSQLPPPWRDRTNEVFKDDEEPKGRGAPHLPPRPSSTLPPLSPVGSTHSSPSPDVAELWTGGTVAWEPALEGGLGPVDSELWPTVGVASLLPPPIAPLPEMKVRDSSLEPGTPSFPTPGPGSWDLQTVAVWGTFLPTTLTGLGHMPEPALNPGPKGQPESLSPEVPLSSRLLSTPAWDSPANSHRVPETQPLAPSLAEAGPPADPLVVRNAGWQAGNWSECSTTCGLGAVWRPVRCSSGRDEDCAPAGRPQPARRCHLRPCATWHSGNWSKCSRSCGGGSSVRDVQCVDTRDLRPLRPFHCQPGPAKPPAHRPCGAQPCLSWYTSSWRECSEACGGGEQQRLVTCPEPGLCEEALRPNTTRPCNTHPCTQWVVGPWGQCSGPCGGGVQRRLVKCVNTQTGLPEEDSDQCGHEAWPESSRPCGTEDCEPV
As to the kind of experiment: Inhibition of ADAMTS-7 cleavage of FRET substrate ATS7FP7. The class given is biochemical. Here is the method: All enzyme assays were conducted in TNC-B buffer (50 mM Tris- HCl, pH 7.5, 150 mM NaCl, 10 mM CaCl2, and 0.02% NaN3) at 37 °C in 384 well plates (Cat. No: 784900, Greiner Bio-One, Austria). To avoid the formation of inhibitor or peptide aggregates, the detergent Brij-35 (0.05%) was added to TNC-B[13]. For inhibition studies, stock solutions of chemical compounds were prepared in dimethyl sulfoxide (DMSO) (10 mM). […] Blank samples were prepared using buffer only and the rate of cleavage for blank reactions was subtracted from the rates measured in the presence of enzyme. Upon addition of the indicated ADAMTS-7 FRET substrates (40 µM), the fluorescence was measured immediately using a FLUOstar Omega microplate reader (BMG Labtech, Germany) with an excitation filter wavelength of 485 nm and an emission filter wavelength of 520 nm.

Another assay deals with MMP-12 (Homo sapiens, UniProt P39900). As to the kind of experiment: MMP-12 FRET peptide inhibition assay. The class given is biochemical. The note with it: Cheng-Prusoff, read-out: Ki app MMP-12. The text has this: Substrate and Km values are in micromolar.
MMP-12, sequence (P39900 106-470): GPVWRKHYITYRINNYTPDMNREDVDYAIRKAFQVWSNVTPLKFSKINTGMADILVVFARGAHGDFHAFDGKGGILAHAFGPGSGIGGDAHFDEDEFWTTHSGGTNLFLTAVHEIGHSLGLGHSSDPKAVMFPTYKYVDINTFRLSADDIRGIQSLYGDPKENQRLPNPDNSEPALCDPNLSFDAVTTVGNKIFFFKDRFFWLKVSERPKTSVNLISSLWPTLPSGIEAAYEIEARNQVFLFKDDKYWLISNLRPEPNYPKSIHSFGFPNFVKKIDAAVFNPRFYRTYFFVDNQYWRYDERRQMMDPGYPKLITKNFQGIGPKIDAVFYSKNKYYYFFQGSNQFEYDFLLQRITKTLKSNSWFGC
2,3-diaminopropionyl diaminopropionic amide; Fam, 5,6-carboxyfluorescein; Mca, 7-
Enzyme Substrate [S] Km Reference

Take `O=C(NCCC[C@@H](NS(=O)(=O)c1ccc(OCc2ccc(F)cc2Cl)cc1)C(=O)NO)c1ccccc1` [EDV33]: on ADAMTS-7 (ATS7FP7 40 μM, 1 h preincubation, 37 °C), the IC50 was 330 ± 70 nM. In addition, the “increase of ADAMTS-7 inhibition relative to JG23” value at ADAMTS-7 (against ATS7FP7) is “approximately 2 fold”. The Ki at ADAMTS-7 (read-out: Ki app (ATS7FP7 substrate)) came to 68 ± 14 nM; at MMP-12, 0.53 ± 0.06 nM.
